Results taken from BindingDB's records for patent US20260007681 (University Of Michigan, 2026).

Target: DNA damage-binding protein 1/Protein cereblon (Homo sapiens, UniProt Q96SW2)
Experimental: The binding potency was determined using H-TRF assay technology (Perkin Elmer). Compounds were serially diluted in DMSO and 0.2 μL volume was transferred to white 384-well plate.

Sequence of DNA damage-binding protein 1/Protein cereblon (Q16531 whole entry): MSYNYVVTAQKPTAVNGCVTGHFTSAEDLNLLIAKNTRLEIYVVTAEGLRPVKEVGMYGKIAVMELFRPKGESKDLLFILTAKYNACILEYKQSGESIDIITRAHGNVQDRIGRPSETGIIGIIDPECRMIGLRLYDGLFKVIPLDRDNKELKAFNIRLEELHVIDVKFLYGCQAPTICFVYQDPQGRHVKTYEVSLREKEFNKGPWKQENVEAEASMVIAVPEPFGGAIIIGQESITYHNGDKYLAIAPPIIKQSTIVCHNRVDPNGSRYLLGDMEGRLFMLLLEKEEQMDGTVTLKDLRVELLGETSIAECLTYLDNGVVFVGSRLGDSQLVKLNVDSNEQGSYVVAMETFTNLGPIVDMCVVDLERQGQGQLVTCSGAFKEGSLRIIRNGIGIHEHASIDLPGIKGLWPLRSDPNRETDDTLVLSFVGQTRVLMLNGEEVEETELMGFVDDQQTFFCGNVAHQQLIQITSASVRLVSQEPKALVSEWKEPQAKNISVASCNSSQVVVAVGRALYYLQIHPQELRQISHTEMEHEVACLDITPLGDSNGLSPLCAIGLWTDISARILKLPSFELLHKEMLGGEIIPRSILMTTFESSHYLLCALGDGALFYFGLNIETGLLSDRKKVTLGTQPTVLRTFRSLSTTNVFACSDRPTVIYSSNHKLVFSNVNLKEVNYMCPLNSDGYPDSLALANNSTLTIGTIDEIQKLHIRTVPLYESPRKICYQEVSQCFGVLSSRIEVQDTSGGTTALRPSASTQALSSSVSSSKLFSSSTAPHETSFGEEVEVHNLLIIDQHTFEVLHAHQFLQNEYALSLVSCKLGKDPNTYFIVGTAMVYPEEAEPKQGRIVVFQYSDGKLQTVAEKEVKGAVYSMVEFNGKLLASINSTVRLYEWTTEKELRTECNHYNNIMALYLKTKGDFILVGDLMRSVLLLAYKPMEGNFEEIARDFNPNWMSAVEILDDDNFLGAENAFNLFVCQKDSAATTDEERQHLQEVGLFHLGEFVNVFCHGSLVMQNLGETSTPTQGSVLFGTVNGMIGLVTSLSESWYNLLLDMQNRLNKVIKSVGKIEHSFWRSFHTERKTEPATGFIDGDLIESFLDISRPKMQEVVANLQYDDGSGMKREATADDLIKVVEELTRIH
Sequence of DNA damage-binding protein 1/Protein cereblon (Q96SW2 whole entry): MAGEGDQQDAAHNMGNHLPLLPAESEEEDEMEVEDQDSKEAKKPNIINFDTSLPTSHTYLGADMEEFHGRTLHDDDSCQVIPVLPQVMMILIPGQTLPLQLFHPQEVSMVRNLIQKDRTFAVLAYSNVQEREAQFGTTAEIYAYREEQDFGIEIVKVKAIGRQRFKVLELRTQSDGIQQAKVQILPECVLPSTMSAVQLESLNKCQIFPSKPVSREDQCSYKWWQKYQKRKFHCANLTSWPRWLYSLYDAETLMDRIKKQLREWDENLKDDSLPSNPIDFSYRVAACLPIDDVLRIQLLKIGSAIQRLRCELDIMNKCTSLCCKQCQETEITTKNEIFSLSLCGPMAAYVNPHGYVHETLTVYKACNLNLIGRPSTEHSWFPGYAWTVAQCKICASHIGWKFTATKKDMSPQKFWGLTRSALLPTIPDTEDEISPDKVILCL

## C[C@@H]1Cc2c([nH]c3ccccc23)[C@@H](c2cnc(N3CCC(N4CCN(c5ccc(NC6CCC(=O)NC6=O)cc5F)CC4)CC3)nc2)N1CC(C)(C)F (stereo partly specified) [US20260007681, Compound A2]
  IC50: 500 to 5000 nM
